In patent US20040224954A1, “Substituted 1H-quinoxalin-2-one compounds and substituted 4-aryl- and 4-heteroarylcyclohexane compounds” (priority 2001, published 2004):
Where a name gives a salt, the structure may show the parent alone.

Assays:
Male NMRI mice = assay: phenylquinone-induced writhing in mice (analgesic efficacy); assay type: in vivo; conditions: 10 mg/kg i.v., phenylquinone i.p. 10 minutes after compound, writhing counted 5-20 minutes after phenylquinone
Experimental: The investigation into analgesic efficacy was performed by phenylquinone-induced writhing in mice (modified after: I. C. Hendershot, J. Forsaith, J. Pharmacol. Exp. There. 125, 237-240 (1959)). The corresponding literature description is hereby introduced as a reference and is deemed to be part of the disclosure.
Male NMRI mice weighing from 25 to 30 g were used for this purpose. Groups of 10 animals per substance dose received, 10 minutes after intravenous administration of the compounds tested, 0.3 ml/mouse of a 0.02% aqueous solution of phenylquinone (phenylbenzoquinone, Sigma, Deisenhofen; solution prepared with addition of 5% of ethanol and stored in a water bath at 45° C.) administered intraperitoneally. The animals were placed individually in observation cages. A push button counter was used to record the number of pain-induced stretching movements (writhing reactions=straightening of the torso with stretching of the rear extremities) for 5-20 minutes after phenylquinone administration. The control was provided by animals which received only physiological common salt solution.
The compounds were tested at the standard dosage of 10 mg/kg. Inhibition of the writhing reactions by a substance was calculated according to the following formula: [formula]
The in-depth investigation into analgesic efficacy was performed using phenylquinone-induced writhing in mice, as described above.

Row | Compound | % inhibition of writhing reactions (Male NMRI mice) | melting point
1 | COc1cccc(C2(O)CCC(OC(=O)c3nc4cc(C)c(C)cc4[nH]c3=O)CC2CN(C)C)c1 (centres unmarked) [Example 3, 6,7-dimethyl-3-oxo-3,4-dihydroquinoxaline 2-carboxylic acid [3′-(N,N-dimethylaminomethyl)-4′-hydroxy-4′-(m-methoxyphenyl)-cyclohexyl] ester] | 90% | –
2 | COc1cccc(C2(O)CCC(NC(=O)c3nc4cc(C)c(C)cc4[nH]c3=O)CC2CN(C)C)c1 (centres unmarked) [Example 1, 6,7-dimethyl-3-oxo-3,4-dihydroquinoxaline 2-carboxylic acid [3′-(N,N-dimethylaminomethyl)-4′-hydroxy-4′-(m-methoxyphenyl)-cyclohexyl]amide hydrochloride] | 72% | –
3 | COc1cccc(C2(O)CCC(OC(=O)c3nc4cc(Cl)c(Cl)cc4[nH]c3=O)CC2CN(C)C)c1 (centres unmarked) [Example 4, 6,7-dichloro-3-oxo-3,4-dihydroquinoxaline 2-carboxylic acid [3′-(N,N-dimethylaminomethyl)-4′-hydroxy-4′-(m-methoxyphenyl)-cyclohexyl] ester] | 84% | 175 to 177 °C
4 | COc1cccc(C2(O)CCC(NC(=O)c3nc4cc(Cl)c(Cl)cc4[nH]c3=O)CC2CN(C)C)c1 (centres unmarked) [Example 2, 6,7-dichloro-3-oxo-3,4-dihydroquinoxaline 2-carboxylic acid [3′-(N,N-dimethylaminomethyl)-4′-hydroxy-4′-(m-methoxyphenyl)-cyclohexyl]amide] | 55% | –
